Laboratory results reported in ChEMBL document CHEMBL4033665, “Synthesis and applications of benzohydroxamic acid-based histone deacetylase inhibitors” (Eur J Med Chem, 2017).

Columns and labels:
Histone deacetylase 1 = Histone deacetylase 1 (Homo sapiens, UniProt Q13547); assay: Inhibition of human HDAC1 after 15 mins by trypsin-coupled fluorescence assay
Homo sapiens [1] = organism: Homo sapiens; assay: Selectivity index, ratio of IC50 for human HDAC11 to IC50 for human HDAC6
Homo sapiens [2] = organism: Homo sapiens; assay: Selectivity index, ratio of IC50 for human HDAC5 to IC50 for human HDAC6
Homo sapiens [3] = organism: Homo sapiens; assay: Selectivity index, ratio of IC50 for human HDAC7 to IC50 for human HDAC6
Histone deacetylase 7 = biological target: T1, Histone deacetylase 7 (Homo sapiens, UniProt Q8WUI4); assay: Inhibition of human HDAC7 after 15 mins by trypsin-coupled fluorescence assay
T1 sequence (Q8WUI4 whole entry): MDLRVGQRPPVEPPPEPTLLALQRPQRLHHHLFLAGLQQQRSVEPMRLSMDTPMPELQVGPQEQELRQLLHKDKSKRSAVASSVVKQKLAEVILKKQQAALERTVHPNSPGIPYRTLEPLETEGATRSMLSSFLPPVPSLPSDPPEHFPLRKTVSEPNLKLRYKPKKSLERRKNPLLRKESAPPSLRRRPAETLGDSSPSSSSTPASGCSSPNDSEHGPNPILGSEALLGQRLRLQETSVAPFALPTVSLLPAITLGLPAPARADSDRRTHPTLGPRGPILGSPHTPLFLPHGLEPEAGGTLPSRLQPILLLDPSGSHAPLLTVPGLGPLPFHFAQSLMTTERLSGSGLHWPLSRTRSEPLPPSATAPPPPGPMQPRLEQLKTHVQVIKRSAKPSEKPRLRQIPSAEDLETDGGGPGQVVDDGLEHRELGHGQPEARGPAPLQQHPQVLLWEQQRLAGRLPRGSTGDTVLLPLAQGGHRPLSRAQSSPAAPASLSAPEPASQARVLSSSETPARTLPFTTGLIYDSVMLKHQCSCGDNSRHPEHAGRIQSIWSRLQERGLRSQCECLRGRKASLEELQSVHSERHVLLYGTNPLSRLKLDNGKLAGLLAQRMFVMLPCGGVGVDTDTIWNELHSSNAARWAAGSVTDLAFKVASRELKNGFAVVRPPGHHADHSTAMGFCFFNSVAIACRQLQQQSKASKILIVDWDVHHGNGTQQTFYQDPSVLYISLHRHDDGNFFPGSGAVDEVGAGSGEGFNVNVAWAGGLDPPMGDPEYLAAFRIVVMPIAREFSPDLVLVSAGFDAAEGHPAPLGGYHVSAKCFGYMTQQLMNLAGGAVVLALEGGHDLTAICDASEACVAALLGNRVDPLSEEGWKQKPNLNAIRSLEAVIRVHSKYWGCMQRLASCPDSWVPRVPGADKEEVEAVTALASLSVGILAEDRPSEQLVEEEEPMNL

Histone deacetylase 11 = biological target: T2, Histone deacetylase 11 (Homo sapiens, UniProt Q96DB2); assay: Inhibition of human HDAC11 after 15 mins by trypsin-coupled fluorescence assay
T2 sequence (Q96DB2 whole entry): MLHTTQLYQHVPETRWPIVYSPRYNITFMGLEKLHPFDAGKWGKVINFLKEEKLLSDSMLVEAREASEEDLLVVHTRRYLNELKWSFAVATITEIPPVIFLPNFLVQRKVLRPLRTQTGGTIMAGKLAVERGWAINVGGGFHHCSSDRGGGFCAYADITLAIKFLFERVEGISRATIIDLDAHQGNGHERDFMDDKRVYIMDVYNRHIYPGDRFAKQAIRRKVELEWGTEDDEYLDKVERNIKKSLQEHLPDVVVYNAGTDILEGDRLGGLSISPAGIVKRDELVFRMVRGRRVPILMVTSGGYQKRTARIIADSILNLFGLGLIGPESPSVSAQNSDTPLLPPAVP

Histone deacetylase 8 = biological target: T3, Histone deacetylase 8 (Homo sapiens, UniProt Q9BY41); assay: Inhibition of human HDAC8 after 15 mins by trypsin-coupled fluorescence assay
T3 sequence (Q9BY41 whole entry): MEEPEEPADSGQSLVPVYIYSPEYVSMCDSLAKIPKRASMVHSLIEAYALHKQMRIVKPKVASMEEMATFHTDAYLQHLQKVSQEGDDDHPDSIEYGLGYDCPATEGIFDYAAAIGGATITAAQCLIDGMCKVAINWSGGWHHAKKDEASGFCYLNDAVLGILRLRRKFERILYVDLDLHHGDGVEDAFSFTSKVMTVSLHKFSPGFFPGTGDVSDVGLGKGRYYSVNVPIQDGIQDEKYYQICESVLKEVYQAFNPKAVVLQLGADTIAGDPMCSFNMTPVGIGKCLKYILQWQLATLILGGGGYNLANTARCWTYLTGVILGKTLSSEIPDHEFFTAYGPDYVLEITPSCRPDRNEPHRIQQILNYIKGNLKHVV

Homo sapiens [4] = organism: Homo sapiens; assay: Selectivity index, ratio of IC50 for human HDAC10 to IC50 for human HDAC6
Histone deacetylase 9 = Histone deacetylase 9 (Homo sapiens, UniProt Q9UKV0); assay: Inhibition of human HDAC9 after 15 mins by trypsin-coupled fluorescence assay
Homo sapiens [5] = organism: Homo sapiens; assay: Selectivity index, ratio of IC50 for human HDAC3 to IC50 for human HDAC6
Homo sapiens [6] = organism: Homo sapiens; assay: Selectivity index, ratio of IC50 for human HDAC8 to IC50 for human HDAC6
Histone deacetylase 3 = Histone deacetylase 3 (Homo sapiens, UniProt O15379); assay: Inhibition of human HDAC3 after 15 mins by trypsin-coupled fluorescence assay
Homo sapiens [7] = organism: Homo sapiens; assay: Selectivity index, ratio of IC50 for human HDAC9 to IC50 for human HDAC6

Sequence of Histone deacetylase 9 (Q9UKV0 whole entry): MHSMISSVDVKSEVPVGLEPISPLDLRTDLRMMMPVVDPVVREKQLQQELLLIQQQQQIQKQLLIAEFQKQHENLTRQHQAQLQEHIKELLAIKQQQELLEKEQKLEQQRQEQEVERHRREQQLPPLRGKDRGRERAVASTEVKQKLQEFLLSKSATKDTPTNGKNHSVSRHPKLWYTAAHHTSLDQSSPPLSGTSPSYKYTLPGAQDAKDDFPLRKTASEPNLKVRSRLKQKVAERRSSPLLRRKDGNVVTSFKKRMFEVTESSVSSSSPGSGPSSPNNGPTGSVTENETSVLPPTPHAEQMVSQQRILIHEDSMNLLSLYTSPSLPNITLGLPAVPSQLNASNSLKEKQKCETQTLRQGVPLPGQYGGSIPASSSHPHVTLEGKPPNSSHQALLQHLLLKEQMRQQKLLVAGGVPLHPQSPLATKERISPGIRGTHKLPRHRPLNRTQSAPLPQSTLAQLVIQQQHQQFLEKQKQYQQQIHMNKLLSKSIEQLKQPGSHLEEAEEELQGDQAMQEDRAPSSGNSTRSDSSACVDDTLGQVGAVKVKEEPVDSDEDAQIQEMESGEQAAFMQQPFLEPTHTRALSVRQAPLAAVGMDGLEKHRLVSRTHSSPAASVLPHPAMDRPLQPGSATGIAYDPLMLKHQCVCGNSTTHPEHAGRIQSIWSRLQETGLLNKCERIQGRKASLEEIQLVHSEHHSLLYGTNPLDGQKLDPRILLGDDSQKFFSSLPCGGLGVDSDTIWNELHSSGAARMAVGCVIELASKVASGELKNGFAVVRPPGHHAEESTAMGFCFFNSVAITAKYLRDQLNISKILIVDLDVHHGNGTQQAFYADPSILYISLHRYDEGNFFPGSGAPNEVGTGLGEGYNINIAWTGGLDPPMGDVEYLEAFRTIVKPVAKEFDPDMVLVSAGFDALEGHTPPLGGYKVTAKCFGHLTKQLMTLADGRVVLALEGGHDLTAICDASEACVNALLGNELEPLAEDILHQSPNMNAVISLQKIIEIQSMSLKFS
Sequence of Histone deacetylase 1 (Q13547 whole entry): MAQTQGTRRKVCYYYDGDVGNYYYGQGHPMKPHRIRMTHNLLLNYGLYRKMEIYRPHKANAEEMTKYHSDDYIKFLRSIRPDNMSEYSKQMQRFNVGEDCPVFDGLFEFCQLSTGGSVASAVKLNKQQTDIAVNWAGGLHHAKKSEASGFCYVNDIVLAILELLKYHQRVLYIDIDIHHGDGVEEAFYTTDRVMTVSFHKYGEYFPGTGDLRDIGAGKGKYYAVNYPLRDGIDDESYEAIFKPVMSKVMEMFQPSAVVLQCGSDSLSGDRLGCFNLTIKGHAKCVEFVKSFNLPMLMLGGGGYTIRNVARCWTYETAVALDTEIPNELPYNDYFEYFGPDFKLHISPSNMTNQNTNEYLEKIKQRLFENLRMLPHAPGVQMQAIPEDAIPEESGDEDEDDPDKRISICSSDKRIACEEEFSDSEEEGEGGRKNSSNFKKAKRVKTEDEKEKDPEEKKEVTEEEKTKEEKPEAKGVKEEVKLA
Sequence of Histone deacetylase 3 (O15379 whole entry): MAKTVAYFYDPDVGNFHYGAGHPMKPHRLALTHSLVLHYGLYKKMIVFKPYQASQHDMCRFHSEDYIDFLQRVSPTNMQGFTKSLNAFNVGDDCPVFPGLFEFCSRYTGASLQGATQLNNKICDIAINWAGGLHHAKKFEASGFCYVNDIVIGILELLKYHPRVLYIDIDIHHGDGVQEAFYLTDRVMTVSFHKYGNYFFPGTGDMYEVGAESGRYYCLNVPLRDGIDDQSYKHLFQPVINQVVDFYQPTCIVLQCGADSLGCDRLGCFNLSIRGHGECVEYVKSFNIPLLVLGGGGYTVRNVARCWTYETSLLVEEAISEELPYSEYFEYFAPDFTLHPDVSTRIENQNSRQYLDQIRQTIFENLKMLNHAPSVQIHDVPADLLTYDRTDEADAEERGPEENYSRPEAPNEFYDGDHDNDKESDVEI

- IC50 (Histone deacetylase 1): 0.8 µM
- Ratio IC50 (Homo sapiens [1]): 15 to 400
- Ratio IC50 (Homo sapiens [2]): 15 to 400
- Ratio IC50 (Homo sapiens [3]): 15 to 400
- IC50 (Histone deacetylase 7): 1.1 µM
- IC50 (Histone deacetylase 11): 3.7 µM
- IC50 (Histone deacetylase 8): 0.4 µM
- Ratio IC50 (Homo sapiens [4]): 15 to 400
- IC50 (Histone deacetylase 9): 5.3 µM
- Ratio IC50 (Homo sapiens [5]): 15 to 400
- Ratio IC50 (Homo sapiens [6]): 15 to 400
- IC50 (Histone deacetylase 3): 2.1 µM
- Ratio IC50 (Homo sapiens [7]): 15 to 400
SMILES: O=C(NO)c1ccc(CN(CCO)C(=O)Cc2ccccc2)cc1
